Test results published in US6355467B1, “Saccharification enzymes from hyperthermophilic bacteria and processes for their production” (Johns Hopkins University, priority 1989, dated 2002).

Legend:
[1] = test system: P. furiosus α-glucosidase; experiment: Substrate specificity (kinetic assays) of purified α-glucosidase; assay type: biochemical, Pyrococcus furiosus; details: substrate hydrolysed by purified α-glucosidase
Procedure: (§1) α-Glucosidase was assayed using p-nitrophenyl-α-D-glucopyranoside (PNP-α-G) as substrate, and β-glucosidase was assayed using p-nitrophenyl-β-D-glucopyranoside (PNP-β-G) as substrate. Assays were conducted as follows; for each assay, 1.0 ml of substrate consisting of 10 mM PNP-α-G or PNP-β-G in 0.1 M sodium phosphate buffer, pH 5.5, was pipetted into a quartz cuvette. The cuvettes were inserted into a heated cell holder and preincubated for 5 to 10 minutes at the assay temperature of 98° C. Following the preincubation, enzyme sample (10 μl) was added to the cuvette and the evolution of p-nitrophenol (PNP) was followed by monitoring A405.
Substrate specificity. The substrate specificity of the purified α-glucosidase was tested with a variety of natural and synthetic glucosides.

P. furiosus = experiment: Effect of adding substrate to the culture medium on saccharification enzyme production; assay type: cell-based, Pyrococcus furiosus; details: substrate added to culture
Procedure: Growth of cells. P. furiosus was grown in artificial sea water supplemented with 10 g/l elemental sulfur and carbohydrate substrate, typically 3 g/l of soluble starch, unless otherwise specified, as described in Example 1. For the present studies, typically one liter bottles were inoculated with 20 ml of a late log phase culture and incubated for 12 hours at 98° C. in a silicon oil bath. Sulfur was removed by filtration and the cell pellet was recovered by centrifugation at about 12,000×g for 30 minutes. Intracellular enzyme preparation. […] The sonicated cells were centrifuged at about 18,000×g for 30 minutes to remove remaining sulfur and cell debris. […] Extracellular enzyme preparation. For extracellular enzyme activities, supernatants from the original centrifugation (i.e., the culture media) were concentrated from 1 liter to about 5 ml using, in succession, a Millipore […] ultrafiltration unit with a 10,000 molecular-weight-cutoff membrane, and a Novacell stirred cell with a 10,000 molecular-weight-cutoff membrane. […] EPPS was used instead of phosphate to prevent precipitation of salts from the media. […] The amount of reducing sugar released was determined using the dinitrosalicylic acid method (Barnfeld, P., 1955, Methods in Enzymology 1:149-50). One unit of enzyme activity was defined as the amount of enzyme that released one nmol of reducing sugar (as a glucose standard) per minute under the assay conditions used. α-Glucosidase was assayed using p-nitrophenyl-α-D-glucopyranoside (PNP-α-G) as substrate, and β-glucosidase was assayed using p-nitrophenyl-β-D-glucopyranoside (PNP-β-G) as substrate. Assays were conducted as follows; for each assay, 1.0 ml of substrate consisting of 10 mM PNP-α-G or PNP-β-G in 0.1 M sodium phosphate buffer, pH 5.5, was pipetted into a quartz cuvette. […] Following the preincubation, enzyme sample (10 μl) was added to the cuvette and the evolution of p-nitrophenol (PNP) was followed by monitoring A405. One unit of glucosidase activity was that amount of enzyme releasing one μmol PNP per minute under the standard conditions, from the appropriate α or β substrate.

[2] = test system: purified P. furiosus α-glucosidase; experiment: Effects of denaturing agents and inhibitors on purified α-glucosidase; assay type: biochemical, Pyrococcus furiosus; details: standard assay at 98° C.
Procedure: as §1, with “A405. One unit of glucosidase activity was that amount of enzyme releasing one μmol PNP per minute under the standard conditions, from the appropriate α or β substrate.” for “A405.”
Resistance to denaturing agents. […] Several denaturing agents were added to p-nitrophenyl-α-D-glucopyranoside, both in the presence and absence of the α-glucosidase, to control for possible degradation of the substrate in the presence of the agents.

What does the source list for `OC[C@H]1O[C@H](O[C@H]2[C@H](O)[C@@H](O)C(O)O[C@@H]2CO)[C@H](O)[C@@H](O)[C@@H]1O` (mixture of isomers) [Maltose]?
Km [1]: 5200 µM; Vm [1]: 1760 U/mg; best yield of pullulanase per liter of culture (P. furiosus; intracellular): 8020 units

`O[C@H](CS)[C@H](O)CS` (racemic) [Dithiothreitol] was tested. Which “Activity Remaining” value ([2]; agent at 100 mM) did it give?
The value was 83%.

`O=C(O)CN(CCN(CC(=O)O)CC(=O)O)CC(=O)O` [EDTA, Ethylenediaminetetraacetic acid] was tested. Which “Activity Remaining” value ([2]; agent at 20 mM) did it give?
The value was 50%.

With `O=C(O)CN(CCOCCOCCN(CC(=O)O)CC(=O)O)CC(=O)O` [EGTA, [Ethylenebis(oxyethylenenitrilo)]tetraacetic acid] as the molecule, how does the “Activity Remaining” value ([2]; agent at 20 μM) read?
Its value is 85%.

`Cl.N=C(N)N` [Guanidinium hydrochloride] was tested. Which “Activity Remaining” value ([2]; agent at 1.0 M) did it give?
The value was <1%.

Which results are given for `OC[C@H]1O[C@H](OC[C@H]2OC(O)[C@H](O)[C@@H](O)[C@@H]2O)[C@H](O)[C@@H](O)[C@@H]1O` (stereo partly drawn) [Isomaltose]?
Km [1]: 8200 µM; Vm [1]: 951 U/mg

What does the source list for `CO[C@H]1O[C@H](CO)[C@@H](O)[C@H](O)[C@H]1O` [Methyl-α-D-glucopyranoside]?
Km [1]: 770 µM; Vm [1]: 186 U/mg

Which “Activity Remaining” value ([2]; agent at 1% (w/v), 30 minutes) does the source give for `CCCCCCCCCCCCOS(=O)(=O)[O-].[Na+]` [Sodium dodecyl sulphate] here?
The value was 22%.

`OC[C@H]1O[C@@](CO)(O[C@H]2O[C@H](CO)[C@@H](O)[C@H](O)[C@H]2O)[C@@H](O)[C@@H]1O` [Sucrose] was tested. Which “activity relative to p-Nitrophenyl-α-D-glucopyranoside (symbols)” value [1] did it give?
Its value is “nd (No activity detected (<3% of p-Nitrophenyl-α-D-glucopyranoside))”.

`NC(N)=O` [Urea] was tested. Which “Activity Remaining” value ([2]; agent at 1.0 M) did it give?
The value was 84%.

What does the source list for `O=[N+]([O-])c1ccc(O[C@@H]2O[C@H](CO)[C@H](O)[C@H](O)[C@H]2O)cc1` [p-Nitrophenyl-α-D-glucopyranoside]?
Km [1]: 260 µM; Vm [1]: 287 U/mg

How did the “activity relative to p-Nitrophenyl-α-D-glucopyranoside (symbols)” value [1] turn out when `O=[N+]([O-])c1ccc(O[C@@H]2O[C@H](CO)[C@@H](O)[C@H](O)[C@H]2O)cc1` [p-Nitrophenyl-β-D-glucopyranoside] was run?
The value was “t (Only a trace of activity could be detected (i.e., ˜3% of the level found with p-Nitrophenyl-α-D-glucopyranoside).)”.

With Starch as the molecule, how does the “activity relative to p-Nitrophenyl-α-D-glucopyranoside (symbols)” value [1] read?
Its value is “nd (No activity detected (<3% of p-Nitrophenyl-α-D-glucopyranoside))”.

And the “best yield of β-glucosidase per liter of culture” value (P. furiosus; intracellular)?
Its value is 220 units.

With glycogen as the molecule, how does the “best yield of amylase per liter of culture” value (P. furiosus; enzyme in medium) read?
The value was 60,100 units.

And the “best yield of α-glucosidase per liter of culture” value (P. furiosus; intracellular)?
Its value is 9584.
